Assay results reported in US8084645B2, “4-phenylamino-benzaldoxime derivatives and uses thereof as mitogen-activated protein kinase kinase (MEK) inhibitors” (Chugai Seiyaku Kabushiki Kaisha, priority 2003, dated 2011).
Converted amounts (≈) assume the structure as drawn. Like-named read-outs stand apart in the source and are kept apart here.

Assays:
[1] = Determination of stability against mouse liver microsomes; assay type: in vitro ADME; conditions: mouse liver microsomes 1 mg protein/mL, 2 mM NADPH, pH 7.4, 37 C; read-out: Stability against mouse liver microsome NADPH+ T1/2
Procedure: (§1) The enzyme reaction was quenched with three volumes of acetonitrile, and the reaction mixture was centrifuged at 1,500 rpm for ten minutes to provide a supernatant as a sample to be measured. Stability against mouse liver microsomes was measured using HPLC/MS to determine the compounds in the sample.

[2] = Determination of water solubility (equilibrium stirring method); assay type: physicochemical; conditions: for solubility at 2 h: aqueous buffer, thermodynamic from solid, read-out: Water solubility (LySA PH 6.5)
Procedure: The vessels were sealed, and the contents were sonicated at room temperature (20° C.) for ten minutes, and then stirred with a stirrer for two hours. After reaching solution equilibrium, the solution was separated with a membrane filter, and the solute concentration was determined using HPLC.

[3] = system: Human colon cancer cell line HT-29; experiment: Determination of the activity of inhibiting cell proliferation (Cell Counting Kit-8); assay type: cell-based; conditions: HT-29, 96 h, HT29, 2,000 cells/well, incubated four days, read-out: Cell proliferation inhibitory activity (HT29) IC50
Procedure: Human colon cancer cell line HT-29, obtained from American Type Culture Collection (VA, USA), and human non-small cell lung cancer cell line QG56, obtained from Immuno-Biological Laboratories Co., Ltd., were plated at 2,000 cells/well in a 96-well culture plate, and incubated for four days after addition of a MEK inhibitor of a given concentration.

[4] = Determination of stability against human liver microsomes; assay type: in vitro ADME; conditions: human liver microsomes 1 mg protein/mL, 2 mM NADPH, pH 7.4, 37 C; read-out: Stability against human liver microsome NADPH+ T1/2
Procedure: as §1, with “human” for “mouse”

MEK = MEK (Homo sapiens, UniProt Q02750); experiment: Determination of MEK inhibitory activities (Raf-1 kinase cascade assay, MBP phosphorylation, 33P-ATP)
Sequence of MEK (Q02750 whole entry): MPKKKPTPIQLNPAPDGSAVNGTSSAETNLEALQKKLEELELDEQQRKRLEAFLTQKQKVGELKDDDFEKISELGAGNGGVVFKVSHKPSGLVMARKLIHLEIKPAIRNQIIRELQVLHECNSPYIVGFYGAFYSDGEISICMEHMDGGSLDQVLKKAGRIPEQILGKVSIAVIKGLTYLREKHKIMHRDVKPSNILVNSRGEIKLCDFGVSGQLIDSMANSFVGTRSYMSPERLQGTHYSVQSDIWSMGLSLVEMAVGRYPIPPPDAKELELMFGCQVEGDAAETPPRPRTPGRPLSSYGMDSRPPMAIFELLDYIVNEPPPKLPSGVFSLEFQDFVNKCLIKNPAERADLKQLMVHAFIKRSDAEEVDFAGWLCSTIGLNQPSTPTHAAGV
Excerpt: The radioisotope used was [γ^33P]-ATP (Amersham Biosciences, K.K.).

[5] = 50 mM phosphate buffer pH 6.5, room temperature (20 C)

Row | half-life [1] [h] | solubility at 2 h [2, 5] [µM] | IC50 [3] [nM] | half-life [4] [h] | IC50 (MEK) [nM] | solubility at 2 h ([2]; phosphate buffer, 20 °C, at pH 6.67) [µM] | solubility at 2 h ([2]; phosphate buffer, 20 °C, at pH 6.87) [µM] | solubility at 2 h ([2]; phosphate buffer, 20 °C, at pH 6.06) [µM] | solubility at 2 h ([2]; phosphate buffer, 20 °C, at pH 6.08) [µM] | Water solubility (LySA PH 6.5) [2, 5] [µM] | SMILES
1 | > 6 | 2910 (≈ 1810 µg/mL) | 750 | > 6 | 693 |  |  |  |  |  | O=C(NOCCO)c1cc(/C=N/OCCN2CCC(O)CC2)c(F)c(F)c1Nc1ccc(I)cc1F [Compound 19, (E)-3,4-difluoro-2-(2-fluoro-4-iodo-phenylamino)-N-(2-hydroxy-ethoxy)-5-{[2-(4-hydroxy-piperidin-1-yl)-ethoxyimino]-methyl}-benzamide]
2 | > 6 |  | 37 | 1.51 | 33 | 162 (≈ 92.2 µg/mL) |  |  |  |  | O=C(NOCCO)c1cc(/C=N/OCC(O)CO)c(F)c(F)c1Nc1ccc(I)cc1F (racemic) [Compound 7, (E)-dl-5-[(2,3-Dihydroxy-propoxyimino)-methyl]-3,4-difluoro-2-(2-fluoro-4-iodo-phenylamino)-N-(2-hydroxy-ethoxy)-benzamide]
3 | > 6 | 175 (≈ 99.6 µg/mL) | 5.8 | > 6 | 15 |  |  |  |  |  | O=C(NOCCO)c1cc(/C=N\OCC(O)CO)c(F)c(F)c1Nc1ccc(I)cc1F (stereo not drawn) [Compound 52, (dl)-(Z)-5-[(2,3-Dihydroxy-propoxyimino)-methyl]-3,4-difluoro-2-(2-fluoro-4-iodo-phenylamino)-N-(2-hydroxy-ethoxy)-benzamide]
4 | > 6 |  | 170 | 4.12 | 150 |  | 426 (≈ 192 µg/mL) |  |  |  | C#Cc1ccc(Nc2c(C(=O)NOCCO)cc(/C=N/OCCCO)c(F)c2F)c(F)c1 [Compound 5, (E)-2-(4-Ethynyl-2-fluoro-phenylamino)-3,4-Difluoro-N-(2-hydroxy-ethoxy)-5-[(3-hydroxy-propoxyimino)-methyl]-benzamide]
5 | > 6 | 11 (≈ 6.78 µg/mL) | 138 | > 6 | 209 |  |  |  |  |  | CS(=O)(=O)NCCO/N=C/c1cc(C(=O)NOCCO)c(Nc2ccc(I)cc2F)c(F)c1F [Compound 47, (E)-3,4-difluoro-2-(2-fluoro-4-iodo-phenylamino)-N-(2-hydroxy-ethoxy)-5-[(2-methanesulfonylamino-ethoxyimino)-methyl]-benzamide]
6 | 2.15 | 73 (≈ 43.5 µg/mL) | 196 | > 6 | 267 |  |  |  |  |  | O=C(CO/N=C/c1cc(C(=O)NOCCO)c(Nc2ccc(I)cc2F)c(F)c1F)NCCO [Compound 45, (E)-3,4-difluoro-2-(2-fluoro-4-iodo-phenylamino)-N-(2-hydroxy-ethoxy)-5-{[(2-hydroxyethylcarbamoyl)-methoxyimino]-methyl}-benzamide]
7 | > 6 |  | 185 | 1.24 | 150 |  |  | 1470 (≈ 687 µg/mL) |  |  | C#Cc1ccc(Nc2c(C(=O)NOCCO)cc(/C=N/OCC(O)CO)c(F)c2F)c(F)c1 (racemic) [Compound 8, (E)-dl-5-[(2,3-Dihydroxy-propoxyimino)-methyl]-2-(4-ethynyl-2-fluoro-phenylamino)-3,4-difluoro-N-(2-hydroxy-ethoxy)-benzamide]
8 | > 6 | 10 (≈ 6.07 µg/mL) | 69 | 2.41 | 203 |  |  |  |  |  | O=C(NOCCO)c1cc(/C=N/OCCN2CCNC2=O)c(F)c(F)c1Nc1ccc(I)cc1F [Compound 27, (E)-3,4-difluoro-2-(2-fluoro-4-iodo-phenylamino)-N-(2-hydroxy-ethoxy)-5-{[2-(2-oxo-imidazolidin-1-yl)-ethoxyimino]-methyl}-benzamide]
9 | > 6 |  | 45 | > 6 | 69 |  |  |  | 3.8 (≈ 2.1 µg/mL) |  | O=C(NOCCO)c1cc(/C=N/OCCCO)c(F)c(F)c1Nc1ccc(I)cc1F [Compound 4, (E)-3,4-Difluoro-2-(2-fluoro-4-iodo-phenylamino)-N-(2-hydroxy-ethoxy)-5-[(3-hydroxy-propoxyimino)-methyl]-benzamide]
10 | 3.94 |  | 80 | 1.08 | 100 |  |  |  |  | 8.3 | O=C(NOCCO)c1cc(/C=N/OCCO)c(F)c(F)c1Nc1ccc(I)cc1F [Compound 1, (E)-3,4-difluoro-2-(2-fluoro-4-iodo-phenylamino)-N-(2-hydroxy-ethoxy)-5-[(2-hydroxy-ethoxyimino)-methyl]-benzamide]
11 | > 6 | 29 (≈ 17.2 µg/mL) | 91 | 1.74 | 56 |  |  |  |  |  | CN(C)C(=O)CCO/N=C/c1cc(C(=O)NOCCO)c(Nc2ccc(I)cc2F)c(F)c1F [Compound 42, (E)-3,4-difluoro-2-(2-fluoro-4-iodo-phenylamino)-N-(2-hydroxy-ethoxy)-5-[dimethylcarbamoylethoxyimino-methyl]-benzamide]
12 | > 6 | 146 (≈ 78.6 µg/mL) | 36 | > 6 | 75 |  |  |  |  |  | NCCO/N=C/c1cc(C(=O)NOCCO)c(Nc2ccc(I)cc2F)c(F)c1F [Compound 22, (E)-5-[(2-amino-ethoxyimino)-methyl]-3,4-difluoro-2-(2-fluoro-4-iodo-phenylamino)-N-(2-hydroxy-ethoxy)-benzamide]
13 | 0.978 | 8 (≈ 4.43 µg/mL) | 137 | 2.67 | 110 |  |  |  |  |  | CC(O)CO/N=C/c1cc(C(=O)NOCCO)c(Nc2ccc(I)cc2F)c(F)c1F (stereo not shown) [Compound 15, (E)-3,4-difluoro-2-(2-fluoro-4-iodo-phenylamino)-N-(2-hydroxy-ethoxy)-5-[(2-hydroxy-propoxyimino)-methyl]-benzamide]
14 | > 6 | 6 (≈ 3.57 µg/mL) | 328 | > 6 | 25 |  |  |  |  |  | CNC(=O)CCCO/N=C/c1cc(C(=O)NOCCO)c(Nc2ccc(I)cc2F)c(F)c1F [Compound 44]
15 | > 6 |  | 86 | > 6 | 48 |  |  |  |  | 16 | CC(=O)NCCO/N=C/c1cc(C(=O)NOCCO)c(Nc2ccc(I)cc2F)c(F)c1F [Compound 24, (E)-5-[(2-acetylamino-ethoxyimino)-methyl]-3,4-difluoro-2-(2-fluoro-4-iodo-phenylamino)-N-(2-hydroxy-ethoxy)-benzamide]
16 | 3.3 | 54 (≈ 32.1 µg/mL) | 44 | 0.813 | 30 |  |  |  |  |  | CC(=O)N(C)CCO/N=C/c1cc(C(=O)NOCCO)c(Nc2ccc(I)cc2F)c(F)c1F [Compound 25, (E)-5-{[2-(acetyl-methyl-amino)-ethoxyimino]-methyl}-3,4-difluoro-2-(2-fluoro-4-iodo-phenylamino)-N-(2-hydroxyethoxy)-benzamide]
17 | > 6 | 12 (≈ 7.13 µg/mL) | 4.6 | 1.62 | 37 |  |  |  |  |  | CNC(=O)CCCO/N=C\c1cc(C(=O)NOCCO)c(Nc2ccc(I)cc2F)c(F)c1F [Compound 55]
18 | 2.25 |  | 150 | 1.34 | 240 |  |  |  |  | 415 | C#Cc1ccc(Nc2c(C(=O)NOCCO)cc(/C=N/OCCO)c(F)c2F)c(F)c1 [Compound 2, (E)-2-(4-ethynyl-2-fluoro-phenylamino)-3,4-difluoro-N-(2-hydroxy-ethoxy)-5-[(2-hydroxy-ethoxyimino)-methyl]-benzamide]
19 | > 6 | 1830 (≈ 1140 µg/mL) | 643 | > 6 | 696 |  |  |  |  |  | O=C(NOCCO)c1cc(/C=N/OCCN2CCC[C@H]2CO)c(F)c(F)c1Nc1ccc(I)cc1F [Compound 20, (E)-3,4-difluoro-2-(2-fluoro-4-iodo-phenylamino)-N-(2-hydroxy-ethoxy)-5-{[2-((S)-hydroxymethyl-pyrrolidin-1-yl)-ethoxyimino]-methyl}-benzamide]
20 | 3.54 | 347 (≈ 166 µg/mL) | 186 | > 6 | 64.7 |  |  |  |  |  | C#Cc1ccc(Nc2c(C(=O)NOCCO)cc(/C=N/OCCC(=O)NC)c(F)c2F)c(F)c1 [Compound 41, (E)-2-(4-ethynyl-2-fluoro-phenylamino)-3,4-difluoro-N-(2-hydroxy-ethoxy)-5-[(2-methylcarbamoyl-ethoxyimino)-methyl]-benzamide]
